Results from ChEMBL document CHEMBL1155084 (J Med Chem, 2008).

Each compound was assayed against CYP3A4 (Homo sapiens, UniProt P08684) (assay: Inhibition of CYP3A4 at 10 uM).
Sequence of CYP3A4 (P08684 whole entry): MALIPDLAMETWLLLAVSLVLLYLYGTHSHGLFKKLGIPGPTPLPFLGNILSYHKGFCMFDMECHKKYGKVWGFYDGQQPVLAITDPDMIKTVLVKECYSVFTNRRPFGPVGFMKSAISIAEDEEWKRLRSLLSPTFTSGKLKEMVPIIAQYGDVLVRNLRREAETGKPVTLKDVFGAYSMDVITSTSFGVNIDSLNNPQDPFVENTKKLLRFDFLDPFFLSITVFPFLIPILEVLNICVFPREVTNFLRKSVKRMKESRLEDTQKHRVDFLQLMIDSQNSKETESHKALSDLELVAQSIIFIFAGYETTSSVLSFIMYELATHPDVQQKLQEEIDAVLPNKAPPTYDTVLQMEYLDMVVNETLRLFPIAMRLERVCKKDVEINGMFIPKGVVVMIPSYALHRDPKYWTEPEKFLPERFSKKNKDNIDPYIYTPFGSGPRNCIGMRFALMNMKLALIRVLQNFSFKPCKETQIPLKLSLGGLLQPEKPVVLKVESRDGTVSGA
Assay type: ADME
`CCC(Nc1cc(-c2nc(SC)[nH]c2-c2ccc(F)cc2)ccn1)c1ccccc1` (configuration not stated) showed an inhibition at 10 µM of 81%.

These compounds were tested against Mitogen-activated protein kinase 14 (Homo sapiens, UniProt Q16539) (assay: Inhibition of p38alpha).
Sequence of Mitogen-activated protein kinase 14 (Q16539 whole entry): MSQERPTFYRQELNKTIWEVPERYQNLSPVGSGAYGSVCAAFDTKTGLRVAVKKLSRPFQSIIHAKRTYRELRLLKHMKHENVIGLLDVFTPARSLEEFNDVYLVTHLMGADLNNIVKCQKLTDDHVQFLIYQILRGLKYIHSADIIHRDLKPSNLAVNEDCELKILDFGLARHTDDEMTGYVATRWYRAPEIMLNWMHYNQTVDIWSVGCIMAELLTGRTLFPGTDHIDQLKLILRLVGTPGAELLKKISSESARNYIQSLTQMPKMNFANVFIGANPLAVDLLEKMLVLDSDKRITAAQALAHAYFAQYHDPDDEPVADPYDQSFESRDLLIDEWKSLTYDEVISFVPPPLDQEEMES
`CSc1nc(-c2ccnc(NCCCO)c2)c(-c2ccc(F)cc2)[nH]1` was tested, and the IC50 was 15 nM. `CSc1nc(-c2ccc(F)cc2)c(-c2ccnc(NCc3ccncc3)c2)[nH]1` gave an IC50 of 119 nM. For `CSc1nc(-c2ccc(F)cc2)c(-c2ccnc(NCc3cccc4ccccc34)c2)[nH]1`, the IC50 was 171 nM. Compound `CSc1nc(-c2ccc(F)cc2)c(-c2ccnc3ccccc23)[nH]1` has an IC50 of 411 nM. `CSc1nc(-c2ccc(F)cc2)c(-c2ccnc(NC(CO)C(C)C)c2)[nH]1` (configuration not stated) showed an IC50 of 34 nM. Work on `CSc1nc(-c2cccc(C(F)(F)F)c2)c(-c2ccnc(NCc3cccs3)c2)[nH]1` yielded an IC50 of 239 nM. Work on `CSc1nc(-c2ccc(F)cc2)c(-c2ccnc(N[C@H]3CC[C@H](C)CC3)c2)[nH]1` yielded an IC50 of 15 nM. Compound `COCCn1c(SC)nc(-c2ccc(F)cc2)c1-c1ccnc(N[C@H](C)C2CCCCC2)c1` has an IC50 of 359 nM. With `CSc1nc(-c2ccc(F)cc2)c(-c2ccnc(F)c2)[nH]1` the IC50 was 559 nM. For `CSc1nc(-c2ccnc(NC3CCCCC3)c2)c(-c2ccc(F)cc2)[nH]1`, the IC50 was 20 nM. `CSc1nc(-c2ccc(F)cc2)c(-c2ccnc(NCc3ccccc3)c2)[nH]1` gave an IC50 of 139 nM. With `CSc1nc(-c2ccnc(NC3CCOCC3)c2)c(-c2ccc(F)cc2)[nH]1` the IC50 was 5 nM. Work on `CSc1nc(-c2cccc(C(F)(F)F)c2)c(-c2ccnc(NCc3ccccc3)c2)[nH]1` yielded an IC50 of 282 nM. `CSc1nc(-c2ccc(F)cc2)c(-c2ccnc(OCc3ccccc3)c2)[nH]1` was tested, and the IC50 was 436 nM. `CSc1nc(-c2ccc(F)cc2)c(-c2ccnc(NCc3ccc(C(C)(C)C)cc3)c2)[nH]1` gave an IC50 of 1340 nM. Work on `CSc1nc(-c2ccc(F)cc2)c(-c2ccnc(NCCC(C)(C)C)c2)[nH]1` yielded an IC50 of 126 nM. With `CCC(C)CNc1cc(-c2[nH]c(SC)nc2-c2ccc(F)cc2)ccn1` (configuration not stated) the IC50 was 23 nM. `CCSc1cc(-c2nc(SC)[nH]c2-c2ccc(F)cc2)ccn1` gave an IC50 of 87 nM. In the case of `CSc1nc(-c2ccc(F)cc2)c(-c2ccnc(N[C@H]3CC[C@H](O)CC3)c2)[nH]1`, the IC50 is reported as 3 nM. For `CCSc1nc(-c2cccc(C(F)(F)F)c2)c(-c2ccnc(F)c2)[nH]1`, the IC50 was 657 nM. Work on `CSc1nc(-c2ccc(F)cc2)c(-c2ccnc(OC(C)CCCC(C)C)c2)[nH]1` (configuration not stated) yielded an IC50 of 641 nM. Work on `COCCn1c(SC)nc(-c2ccc(F)cc2)c1-c1ccnc(N[C@H](C)CO)c1` yielded an IC50 of 485 nM. `CSc1nc(-c2cccc(C(F)(F)F)c2)c(-c2ccnc(NC(C)C(C)C)c2)[nH]1` (configuration not stated) was tested, and the IC50 was 34 nM. Compound `Fc1ccc(-c2nc(SCc3ccccc3)[nH]c2-c2ccnc(Cl)c2)cc1` has an IC50 of 2900 nM. Work on `CSc1nc(-c2cccc(C(F)(F)F)c2)c(-c2ccnc(N[C@H](C)C3CCCCC3)c2)[nH]1` yielded an IC50 of 36 nM. With `COCCn1c(SC)nc(-c2ccc(F)cc2)c1-c1ccnc(Nc2ccccc2)c1` the IC50 was 51 nM. `CSc1nc(-c2ccc(F)cc2)c(-c2ccnc(NCCC(C)C)c2)[nH]1` gave an IC50 of 90 nM. `CSc1nc(-c2ccc(F)cc2)c(-c2ccnc(NC3CCC(C)CC3)c2)[nH]1` (mixture of isomers) gave an IC50 of 20 nM. `CSc1nc(-c2ccc(F)cc2)c(-c2ccnc(NC(C)C(C)(C)C)c2)[nH]1` (configuration not stated) showed an IC50 of 230 nM. `Fc1cc(-c2[nH]c(SCc3ccccc3)nc2-c2cccc(C(F)(F)F)c2)ccn1` gave an IC50 of 1950 nM. For `CSc1nc(-c2ccc(F)cc2)c(-c2ccnc(NCc3cc4ccccc4s3)c2)[nH]1`, the IC50 was 314 nM. `COCCn1c(SC)nc(-c2ccc(F)cc2)c1-c1ccnc(NC[C@H]2CCCC[C@@H]2O)c1` gave an IC50 of 235 nM. Work on `CCC(CO)Nc1cc(-c2[nH]c(SC)nc2-c2ccc(F)cc2)ccn1` (configuration not stated) yielded an IC50 of 10 nM. `CCC(Nc1cc(-c2nc(SC)[nH]c2-c2ccc(F)cc2)ccn1)c1ccccc1` (configuration not stated) showed an IC50 of 68 nM.

These compounds were tested against T1, CYP1A2 (Homo sapiens, UniProt P05177) (assay: Inhibition of CYP1A2 at 10 uM).
T1 sequence (P05177 whole entry): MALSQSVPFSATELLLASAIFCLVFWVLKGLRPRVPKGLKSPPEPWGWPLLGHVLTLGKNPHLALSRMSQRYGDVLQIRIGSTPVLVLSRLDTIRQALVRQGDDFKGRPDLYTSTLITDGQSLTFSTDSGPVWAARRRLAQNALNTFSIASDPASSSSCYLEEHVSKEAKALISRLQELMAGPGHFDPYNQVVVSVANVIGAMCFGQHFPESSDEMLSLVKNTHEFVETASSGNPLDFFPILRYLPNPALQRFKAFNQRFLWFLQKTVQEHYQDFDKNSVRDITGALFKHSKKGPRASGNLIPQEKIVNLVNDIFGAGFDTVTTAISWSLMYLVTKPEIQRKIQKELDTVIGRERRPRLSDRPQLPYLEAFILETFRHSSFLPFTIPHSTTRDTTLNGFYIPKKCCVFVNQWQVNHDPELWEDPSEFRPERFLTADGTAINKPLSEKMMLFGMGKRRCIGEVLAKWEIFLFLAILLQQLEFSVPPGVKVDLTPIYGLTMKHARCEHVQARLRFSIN
Assay type: ADME
Compound `CCC(Nc1cc(-c2nc(SC)[nH]c2-c2ccc(F)cc2)ccn1)c1ccccc1` (configuration not stated) has an inhibition at 10 µM of 55%.

These compounds were tested against CYP2C9 (Homo sapiens, UniProt P11712) (assay: Inhibition of CYP2C9 at 10 uM).
Sequence of CYP2C9 (P11712 whole entry): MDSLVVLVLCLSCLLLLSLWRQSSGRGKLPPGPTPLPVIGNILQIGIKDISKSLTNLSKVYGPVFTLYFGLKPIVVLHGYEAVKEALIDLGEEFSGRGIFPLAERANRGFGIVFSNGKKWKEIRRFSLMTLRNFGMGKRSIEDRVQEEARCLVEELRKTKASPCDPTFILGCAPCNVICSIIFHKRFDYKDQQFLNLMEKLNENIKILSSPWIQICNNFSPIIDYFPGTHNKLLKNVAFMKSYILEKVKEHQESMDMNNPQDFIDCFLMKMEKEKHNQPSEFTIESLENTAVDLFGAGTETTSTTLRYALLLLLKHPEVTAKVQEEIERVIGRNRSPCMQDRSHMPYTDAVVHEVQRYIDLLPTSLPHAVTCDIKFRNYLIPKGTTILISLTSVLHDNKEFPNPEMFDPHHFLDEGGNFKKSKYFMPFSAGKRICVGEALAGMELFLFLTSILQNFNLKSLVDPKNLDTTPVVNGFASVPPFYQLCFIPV
Assay type: ADME
Work on `CCC(Nc1cc(-c2nc(SC)[nH]c2-c2ccc(F)cc2)ccn1)c1ccccc1` (configuration not stated) yielded an inhibition at 10 µM of 80%.

What follows are compounds tested against CYP2D6 (Homo sapiens, UniProt P10635) (assay: Inhibition of CYP2D6 at 10 uM).
Sequence of CYP2D6 (P10635 whole entry): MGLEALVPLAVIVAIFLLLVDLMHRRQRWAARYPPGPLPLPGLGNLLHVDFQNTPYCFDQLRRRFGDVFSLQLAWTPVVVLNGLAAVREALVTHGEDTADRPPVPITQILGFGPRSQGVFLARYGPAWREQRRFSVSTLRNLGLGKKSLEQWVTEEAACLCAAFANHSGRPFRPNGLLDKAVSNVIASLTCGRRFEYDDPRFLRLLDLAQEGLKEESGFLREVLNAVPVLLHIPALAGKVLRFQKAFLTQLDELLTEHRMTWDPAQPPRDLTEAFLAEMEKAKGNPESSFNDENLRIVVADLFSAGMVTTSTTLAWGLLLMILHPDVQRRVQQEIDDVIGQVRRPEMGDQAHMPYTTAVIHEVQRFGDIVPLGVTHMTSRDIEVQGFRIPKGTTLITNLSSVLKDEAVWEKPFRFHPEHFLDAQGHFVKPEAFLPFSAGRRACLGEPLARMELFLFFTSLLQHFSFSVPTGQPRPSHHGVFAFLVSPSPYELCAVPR
Assay type: ADME
Compound `CCC(Nc1cc(-c2nc(SC)[nH]c2-c2ccc(F)cc2)ccn1)c1ccccc1` (configuration not stated) has an inhibition at 10 µM of 73%.

What follows are compounds tested on Blood (assay: Inhibition of IL1-beta release in human whole blood).
Assay type: functional, tissue-based
Work on `CSc1nc(-c2ccc(F)cc2)c(-c2ccnc3ccccc23)[nH]1` yielded an IC50 of 35000 nM. `CCC(C)CNc1cc(-c2[nH]c(SC)nc2-c2ccc(F)cc2)ccn1` (configuration not stated) was tested, and the IC50 was 2760 nM. `CCSc1cc(-c2nc(SC)[nH]c2-c2ccc(F)cc2)ccn1` was tested, and the IC50 was 61300 nM. Work on `CSc1nc(-c2cccc(C(F)(F)F)c2)c(-c2ccnc(NC(C)C(C)C)c2)[nH]1` (configuration not stated) yielded an IC50 of 1360 nM.

Each compound was assayed on Blood (assay: Inhibition of TNFalpha release in human whole blood).
Assay type: functional, tissue-based
For `CSc1nc(-c2ccnc(NCCCO)c2)c(-c2ccc(F)cc2)[nH]1`, the IC50 was 680 nM. Work on `CSc1nc(-c2ccc(F)cc2)c(-c2ccnc(NCc3ccncc3)c2)[nH]1` yielded an IC50 of 6220 nM. Compound `CSc1nc(-c2ccc(F)cc2)c(-c2ccnc(NCc3cccc4ccccc34)c2)[nH]1` has an IC50 of 28000 nM. `CSc1nc(-c2ccc(F)cc2)c(-c2ccnc3ccccc23)[nH]1` was tested, and the IC50 was 16800 nM. In the case of `CSc1nc(-c2ccc(F)cc2)c(-c2ccnc(NC(CO)C(C)C)c2)[nH]1` (configuration not stated), the IC50 is reported as 1060 nM. Work on `CSc1nc(-c2cccc(C(F)(F)F)c2)c(-c2ccnc(NCc3cccs3)c2)[nH]1` yielded an IC50 of 26800 nM. With `CSc1nc(-c2ccc(F)cc2)c(-c2ccnc(N[C@H]3CC[C@H](C)CC3)c2)[nH]1` the IC50 was 15800 nM. Work on `COCCn1c(SC)nc(-c2ccc(F)cc2)c1-c1ccnc(N[C@H](C)C2CCCCC2)c1` yielded an IC50 of 28000 nM. `CSc1nc(-c2ccc(F)cc2)c(-c2ccnc(F)c2)[nH]1` was tested, and the IC50 was 29900 nM. `CSc1nc(-c2ccnc(NC3CCCCC3)c2)c(-c2ccc(F)cc2)[nH]1` gave an IC50 of 362 nM. Compound `CSc1nc(-c2cccc(C(F)(F)F)c2)c(-c2ccnc(NCc3ccccc3)c2)[nH]1` has an IC50 of 38100 nM. Compound `CSc1nc(-c2ccc(F)cc2)c(-c2ccnc(OCc3ccccc3)c2)[nH]1` has an IC50 of 44700 nM. `CSc1nc(-c2ccc(F)cc2)c(-c2ccnc(NCc3ccc(C(C)(C)C)cc3)c2)[nH]1` was tested, and the IC50 was 52600 nM. `CSc1nc(-c2ccc(F)cc2)c(-c2ccnc(NCCC(C)(C)C)c2)[nH]1` was tested, and the IC50 was 4540 nM. `CCC(C)CNc1cc(-c2[nH]c(SC)nc2-c2ccc(F)cc2)ccn1` (configuration not stated) gave an IC50 of 622 nM. Compound `CCSc1cc(-c2nc(SC)[nH]c2-c2ccc(F)cc2)ccn1` has an IC50 of 24100 nM. `CSc1nc(-c2ccc(F)cc2)c(-c2ccnc(N[C@H]3CC[C@H](O)CC3)c2)[nH]1` showed an IC50 of 386 nM. `CCSc1nc(-c2cccc(C(F)(F)F)c2)c(-c2ccnc(F)c2)[nH]1` was tested, and the IC50 was 71500 nM. For `CSc1nc(-c2ccc(F)cc2)c(-c2ccnc(OC(C)CCCC(C)C)c2)[nH]1` (configuration not stated), the IC50 was 42700 nM. In the case of `CSc1nc(-c2cccc(C(F)(F)F)c2)c(-c2ccnc(NC(C)C(C)C)c2)[nH]1` (configuration not stated), the IC50 is reported as 2930 nM. `Fc1ccc(-c2nc(SCc3ccccc3)[nH]c2-c2ccnc(Cl)c2)cc1` was tested, and the IC50 was 50900 nM. With `CSc1nc(-c2cccc(C(F)(F)F)c2)c(-c2ccnc(N[C@H](C)C3CCCCC3)c2)[nH]1` the IC50 was 9890 nM. Work on `CSc1nc(-c2ccc(F)cc2)c(-c2ccnc(NCCC(C)C)c2)[nH]1` yielded an IC50 of 2430 nM. With `CSc1nc(-c2ccc(F)cc2)c(-c2ccnc(NC3CCC(C)CC3)c2)[nH]1` (mixture of isomers) the IC50 was 5400 nM. `CSc1nc(-c2ccc(F)cc2)c(-c2ccnc(NC(C)C(C)(C)C)c2)[nH]1` (configuration not stated) showed an IC50 of 435 nM. Compound `Fc1cc(-c2[nH]c(SCc3ccccc3)nc2-c2cccc(C(F)(F)F)c2)ccn1` has an IC50 of 83600 nM. For `CSc1nc(-c2ccc(F)cc2)c(-c2ccnc(NCc3cc4ccccc4s3)c2)[nH]1`, the IC50 was 55500 nM. Compound `COCCn1c(SC)nc(-c2ccc(F)cc2)c1-c1ccnc(NC[C@H]2CCCC[C@@H]2O)c1` has an IC50 of 11500 nM. `CCC(CO)Nc1cc(-c2[nH]c(SC)nc2-c2ccc(F)cc2)ccn1` (configuration not stated) showed an IC50 of 239 nM.

What follows are compounds tested against CYP2C19 (Homo sapiens, UniProt P33261) (assay: Inhibition of CYP2C19 at 10 uM).
Sequence of CYP2C19 (P33261 whole entry): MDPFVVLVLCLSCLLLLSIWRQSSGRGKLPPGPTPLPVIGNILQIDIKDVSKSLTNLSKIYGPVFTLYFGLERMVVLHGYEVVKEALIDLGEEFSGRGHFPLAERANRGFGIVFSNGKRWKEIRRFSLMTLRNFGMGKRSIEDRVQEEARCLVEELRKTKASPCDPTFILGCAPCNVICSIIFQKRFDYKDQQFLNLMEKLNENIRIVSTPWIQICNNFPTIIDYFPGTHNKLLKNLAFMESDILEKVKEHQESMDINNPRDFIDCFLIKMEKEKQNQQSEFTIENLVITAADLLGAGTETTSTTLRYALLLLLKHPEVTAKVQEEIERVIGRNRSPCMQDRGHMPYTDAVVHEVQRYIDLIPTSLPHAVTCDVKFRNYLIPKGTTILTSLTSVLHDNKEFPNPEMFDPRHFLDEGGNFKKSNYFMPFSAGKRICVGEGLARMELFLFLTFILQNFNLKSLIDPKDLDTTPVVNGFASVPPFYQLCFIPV
Assay type: ADME
`CCC(Nc1cc(-c2nc(SC)[nH]c2-c2ccc(F)cc2)ccn1)c1ccccc1` (configuration not stated) gave an inhibition at 10 µM of 88%.
